# Measured values published in ChEMBL document CHEMBL1201862, “PubChem BioAssay data set” (2004).
#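 How tested: cells in 96-well plates exposed to compound for 48 hours at five concentrations. The concentration for 50% growth inhibition is given as GI50.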 Activity calls are given as the source filed them. No stated cut-off is given here; in the data, active = GI50 up to about 1.1 µM and inactive = higher.
# What was measured:
# Assay in all cases: DTP human tumour cell line panel, 48 h
# [1] = system: UACC-62
# [2] = system: UACC-257
# [3] = system: A498
# [4] = system: 786-0
# [5] = system: IGROV-1
# [6] = system: TK-10
# [7] = system: SNB-75
# [8] = system: SW-620
# [9] = system: HCT-116
# [10] = system: ACHN
# [11] = system: SF-268
# [12] = system: SK-MEL-5
# [13] = system: HCT-15
# [14] = system: CAKI-1
# [15] = system: MOLT-4
# [16] = system: SR
SMILES,GI50 [1],GI50 [2],GI50 [3],GI50 [4],GI50 [5],GI50 [6],GI50 [7],GI50 [8],GI50 [9],GI50 [10],GI50 [11],GI50 [12],GI50 [13] [µM],GI50 [14],GI50 [15],GI50 [16]
COc1ccc(C23c4ccc(OC)cc4CC2(c2ccc([N+](=O)[O-])cc2)Cc2cc(OC)ccc23)cc1 (centres undefined),> 17.1 µM (inactive),> 51.3 µM (inactive),> 29.7 µM (inactive),> 100 µM (inactive),> 21.5 µM (inactive),> 92.5 µM (inactive),> 83.6 µM (inactive),> 100 µM (inactive),> 37.2 µM (inactive),> 39.4 µM (inactive),> 22.3 µM (inactive),> 21.7 µM (inactive),> 93.5,> 27.2 µM (inactive),> 36.2 µM (inactive),
Cn1c2cccc3nnc4cccc(c4c32)n1C,> 100 µM (inactive),> 100 µM (inactive),> 100 µM (inactive),> 100 µM (inactive),> 100 µM (inactive),,,> 100 µM (inactive),> 100 µM (inactive),> 100 µM (inactive),> 100 µM (inactive),> 100 µM (inactive),> 100,21.2 µM (inactive),> 100 µM (inactive),
CC(=O)Oc1cc(OC(C)=O)c2cc3c(cc2c1OC(C)=O)C(=O)C1(CCCC1)C3=O,15.8 µM (inactive),,,17.2 µM (inactive),17.2 µM (inactive),17.2 µM (inactive),14.2 µM (inactive),16.3 µM (inactive),,17.7 µM (inactive),22.5 µM (inactive),,17.8,11.4 µM (inactive),3.18 µM (inactive),
COc1ccc(N2C(=O)C(N3C(=O)C=CC3=O)C2C=O)cc1 (centres undefined),> 100 µM (inactive),> 100 µM (inactive),> 100 µM (inactive),> 100 µM (inactive),> 100 µM (inactive),> 100 µM (inactive),> 100 µM (inactive),> 100 µM (inactive),> 100 µM (inactive),> 100 µM (inactive),> 100 µM (inactive),> 100 µM (inactive),> 100,> 100 µM (inactive),,> 100 µM (inactive)
CN(C)CCC(/C=C/c1ccccc1)=N\Nc1ccccc1,0.617 µM (active),2.42 µM (inactive),12.5 µM (inactive),2.03 µM (inactive),2.82 µM (inactive),1.6 µM (inactive),3.48 µM (inactive),0.335 µM (active),1.9 µM (inactive),0.37 µM (active),0.736 µM (active),3.48 µM (inactive),0.336,,0.667 µM (active),
CCOC(=O)c1cnc2c(ccc3ncccc32)c1NCCCN(CC)CC,> 100 µM (inactive),> 100 µM (inactive),> 100 µM (inactive),37.9 µM (inactive),> 100 µM (inactive),> 100 µM (inactive),,41.9 µM (inactive),,> 100 µM (inactive),90.6 µM (inactive),> 100 µM (inactive),80.5,> 100 µM (inactive),23 µM (inactive),
CCCC1C(=O)C(CC)Cc2c(OC)ccc(OC)c21 (centres undefined),> 100 µM (inactive),> 100 µM (inactive),,> 100 µM (inactive),> 100 µM (inactive),> 100 µM (inactive),> 100 µM (inactive),> 100 µM (inactive),,> 100 µM (inactive),> 100 µM (inactive),> 100 µM (inactive),> 100,> 100 µM (inactive),> 100 µM (inactive),
O=C1c2ccccc2C(=O)N1CCn1ccc(NC(c2ccccc2)(c2ccccc2)c2ccccc2)nc1=O,12.6 µM (inactive),18 µM (inactive),18.2 µM (inactive),32 µM (inactive),22.2 µM (inactive),26.9 µM (inactive),21.8 µM (inactive),29.3 µM (inactive),17.5 µM (inactive),22.5 µM (inactive),19.2 µM (inactive),17.5 µM (inactive),22.5,9.62 µM (inactive),17.5 µM (inactive),
CCN(CC)CC(=O)N1CCc2c([nH]c3ccccc23)C1c1cccnc1 (centres undefined),> 100 µM (inactive),> 100 µM (inactive),> 100 µM (inactive),> 100 µM (inactive),> 100 µM (inactive),> 100 µM (inactive),73.6 µM (inactive),> 100 µM (inactive),> 100 µM (inactive),> 100 µM (inactive),> 100 µM (inactive),> 100 µM (inactive),> 100,> 100 µM (inactive),> 100 µM (inactive),
COc1nc(NC2OC(COC(C)=O)C(OC(C)=O)C(OC(C)=O)C2OC(C)=O)c2c(OC(C)=O)cc(=O)oc2n1 (centres undefined),> 100 µM (inactive),> 100 µM (inactive),15.9 µM (inactive),> 100 µM (inactive),> 100 µM (inactive),> 100 µM (inactive),> 100 µM (inactive),> 100 µM (inactive),> 100 µM (inactive),12.5 µM (inactive),,> 100 µM (inactive),> 100,> 100 µM (inactive),> 100 µM (inactive),
NC(=O)N/N=C/C(=C/Nc1ccccc1)[N+](=O)[O-],> 100 µM (inactive),> 100 µM (inactive),,> 100 µM (inactive),> 100 µM (inactive),> 100 µM (inactive),,> 100 µM (inactive),> 100 µM (inactive),> 100 µM (inactive),> 100 µM (inactive),> 100 µM (inactive),> 100,,93.8 µM (inactive),> 100 µM (inactive)
CN/C=C(\C(=O)c1ccc(OC)c(OC)c1)c1ccc(OC)cc1,16.4 µM (inactive),10.7 µM (inactive),13.3 µM (inactive),11.4 µM (inactive),27.4 µM (inactive),17 µM (inactive),30.1 µM (inactive),17.3 µM (inactive),4.06 µM (inactive),22 µM (inactive),24.2 µM (inactive),17.4 µM (inactive),13.1,,19.9 µM (inactive),16.3 µM (inactive)
O=C(NC1C2CC3CC(C2)CC1C3)c1ccncn1 (centres undefined),> 100 µM (inactive),> 100 µM (inactive),> 100 µM (inactive),> 100 µM (inactive),> 100 µM (inactive),,> 100 µM (inactive),> 100 µM (inactive),> 100 µM (inactive),> 100 µM (inactive),> 100 µM (inactive),> 100 µM (inactive),> 100,> 100 µM (inactive),,
Cc1cccc(C)c1NC(=O)C1=NC(=S)NC(c2ccccc2)C1c1nc2ccccc2s1 (centres undefined),> 100 µM (inactive),> 100 µM (inactive),> 100 µM (inactive),> 100 µM (inactive),> 100 µM (inactive),> 100 µM (inactive),> 100 µM (inactive),> 100 µM (inactive),> 100 µM (inactive),> 100 µM (inactive),> 100 µM (inactive),> 100 µM (inactive),,> 100 µM (inactive),> 100 µM (inactive),> 100 µM (inactive)
N#CCc1cccc(CC#N)c1Br,> 100 µM (inactive),> 100 µM (inactive),,> 100 µM (inactive),> 100 µM (inactive),,> 100 µM (inactive),> 100 µM (inactive),> 100 µM (inactive),> 100 µM (inactive),86.5 µM (inactive),,> 100,> 100 µM (inactive),> 100 µM (inactive),> 100 µM (inactive)
CCN(CC)CCCN1CCc2c([nH]c3ccccc23)C1c1cccnc1 (centres undefined),> 100 µM (inactive),42.8 µM (inactive),> 100 µM (inactive),> 100 µM (inactive),> 100 µM (inactive),> 100 µM (inactive),> 100 µM (inactive),> 100 µM (inactive),> 100 µM (inactive),> 100 µM (inactive),,59.8 µM (inactive),> 100,> 100 µM (inactive),> 100 µM (inactive),> 100 µM (inactive)
COc1cc([C@@H]2c3cc4c(cc3[C@@H](NCc3cccc(F)c3)C3COC(=O)[C@@H]32)OCO4)cc(OC)c1O (some centres undefined),2.47 µM (inactive),10.8 µM (inactive),2.68 µM (inactive),2.29 µM (inactive),3.18 µM (inactive),9.68 µM (inactive),1.95 µM (inactive),5.06 µM (inactive),4.5 µM (inactive),1.67 µM (inactive),5.92 µM (inactive),7.13 µM (inactive),3.57,6.85 µM (inactive),0.364 µM (active),
C[C@@H](CC(O)C1OC1(C)C)[C@@H]1CC[C@]2(C)C3=CCC4C(C)(C)C(O)CC[C@]4(C)C3CCC12C (some centres undefined),14.8 µM (inactive),16.3 µM (inactive),26.5 µM (inactive),16 µM (inactive),31.3 µM (inactive),20.3 µM (inactive),,38.9 µM (inactive),9.89 µM (inactive),14.8 µM (inactive),26.3 µM (inactive),,33.1,,16 µM (inactive),16.3 µM (inactive)
COc1cc(C[S+]2CCCC2)c(SC)cc1C[S+]1CCCC1,> 100 µM (inactive),> 100 µM (inactive),> 100 µM (inactive),> 100 µM (inactive),> 100 µM (inactive),> 100 µM (inactive),47.4 µM (inactive),> 100 µM (inactive),> 100 µM (inactive),> 100 µM (inactive),> 100 µM (inactive),> 100 µM (inactive),> 100,> 100 µM (inactive),> 100 µM (inactive),
CC(=O)Oc1ccccc1 [ACETIC ACID PHENYL ESTER],> 100 µM (inactive),> 100 µM (inactive),> 100 µM (inactive),> 100 µM (inactive),> 100 µM (inactive),,> 100 µM (inactive),> 100 µM (inactive),> 100 µM (inactive),> 100 µM (inactive),> 100 µM (inactive),> 100 µM (inactive),> 100,> 100 µM (inactive),> 100 µM (inactive),
